Laboratory results taken from PubChem BioAssay (NCI).
Where “and” joins values, the source holds several entries; their conditions need not be identical. Equal entries are not always repeated.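 In this assay, cells in 96-well plates receive the compound at five concentrations for 48 hours. Endpoints are linearly interpolated between the surrounding concentrations. Here, GI50 denotes the concentration required for 50% inhibition of growth. TGI is the concentration that stops growth completely.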

What was measured:
Experiment in all cases: growth of human tumour cells (NCI), 48 h
[1] = tested on: SF-539 CNS
[2] = tested on: NCI-H23 lung
[3] = tested on: OVCAR-4 ovarian
[4] = tested on: HCT-15 colon
[5] = tested on: SW-620 colon
[6] = tested on: DMS 114 small cell lung
[7] = tested on: LXFL 529 NSCLC
[8] = tested on: M14 melanoma
[9] = tested on: DU-145 prostate
[10] = tested on: SF-295 CNS

Row | SMILES | TGI [1] | TGI [2] | TGI [3] | TGI [4] | TGI [5] | TGI [6] [µM] | TGI [7] | TGI [8] | TGI [9] [µM] | TGI [10] | GI50 [2] | GI50 [3] | GI50 [5] | GI50 [8] | GI50 [10] | GI50 [1] [µM] | GI50 [4] [µM] | GI50 [9] [µM] | GI50 [6] [µM] | GI50 [7] [µM]
1 | CCc1cccc(CC)c1NC(=S)NC(=O)c1ccc(Br)cc1 | > 100 µM | > 100 µM | > 50.4 µM | > 78.4 µM | > 100 µM | > 100 | > 100 µM | > 81.2 µM | > 100 | > 100 µM | – | – | – | – | – | – | – | – | – | –
2 | COC(=O)c1ccccc1NC(=O)C(=O)CC(=O)c1ccccc1NC1=CC(=O)C(=O)c2ccccc21 | 46.2 µM | 24 µM | 36.2 µM | 34.1 µM | 23 µM | 5.33 | 27.2 µM | 17.9 µM | > 53.8 | > 49.8 µM | – | – | – | – | – | – | – | – | – | –
3 | CC(=O)O[C@H]1[C@@H]2[C@@H]3[C@@H](C[C@H]1C)[C@@H](C)CO[C@@]1(C)CC/C=C(/C)C[C@@H]2O[C@@H]31 | > 100 µM | > 100 µM | > 100 µM | > 100 µM | > 100 µM | > 100 | > 100 µM | > 100 µM | – | > 100 µM | – | – | – | – | – | – | – | – | – | –
4 | CC1=C(C(=O)Nc2ccccc2C)C(c2ccc([N+](=O)[O-])cc2)C(C(=O)Nc2ccccc2C)=C(C)N1 | > 100 µM | > 100 µM | > 100 µM | > 100 µM | > 100 µM | > 100 | > 100 µM | > 100 µM | – | > 100 µM | – | – | – | – | – | – | – | – | – | –
5 | C=C(CN(CC(=C)C(=O)c1ccccc1)C(C)(C)C)C(=O)c1ccccc1 | 31.5 µM | 32.7 µM | 29.3 µM | – | 9.91 µM | 33.5 | 10.1 µM | 23 µM | 40.3 | > 54.2 µM | – | – | – | – | – | – | – | – | – | –
6 | Cc1ccc(NC(=O)CC(=O)n2nc(-c3ccccc3)c(N=Nc3ccc(Cl)cc3)c2-c2ccccc2)cc1 | 85.6 µM | > 100 µM | > 100 µM | > 100 µM | 31 µM | > 100 | > 100 µM | > 100 µM | – | > 100 µM | – | – | – | – | – | – | – | – | – | –
7 | COc1cc(-c2oc3c(OC)c(OC)cc(O)c3c(=O)c2OC)ccc1O | > 100 µM and 49.2 µM | > 100 µM | > 100 µM | > 100 µM | > 100 µM | > 100 | > 100 µM | > 100 µM | > 50 | > 100 µM and 38.1 µM | 7.38 µM and 35.1 µM | > 100 µM and 11.4 µM | > 100 µM and 37.8 µM | 3 µM and 6.26 µM | 3.24 µM and 8.34 µM | – | – | – | – | –
8 | CCC(=O)OC1CCn2c1nc1c2C(=O)C(C)=C(N2CC2)C1=O (stereo not given) | – | 0.0821 µM and 0.0948 µM | 0.291 µM and 0.667 µM | 0.209 µM and 0.0527 µM | 0.244 µM and 0.13 µM | 0.522 | 0.35 µM | 0.0436 µM and 0.141 µM | 0.0503 | 1.08 µM and 0.151 µM | 0.0235 µM | 0.293 µM | 0.0248 µM | 0.0185 µM | 0.0315 µM | 0.0138 | 0.0204 | – | – | –
9 | CO[C@H]1[C@H](O)[C@H](O[C@H]2CC[C@@]3(C)[C@H](CC[C@@H]4[C@@H]3CC[C@]3(C)[C@@H](C5=CC(=O)OC5)CC[C@]43O)C2)O[C@@H](C)[C@@H]1O | 0.00111 µM | 0.00127 µM | 0.000626 µM | 0.00255 µM and < 0.0124 µM | 0.00341 µM | 0.00335 | 0.00658 µM and 0.0128 µM | 0.00302 µM and 0.0169 µM | < 0.0001 | 0.00224 µM and < 0.0107 µM | – | – | – | – | – | – | – | – | – | –
10 | N/N=C1\c2ccccc2C2/C(=N\N)c3ccccc3C12 (stereo not given) | > 100 µM | > 100 µM | > 100 µM | > 100 µM | > 100 µM | > 100 | > 100 µM | > 100 µM | – | > 100 µM | – | – | – | – | – | – | – | – | – | –
11 | C=CCNC1=C(C(=O)OCC)C(=O)CO1 | > 100 µM | > 100 µM | > 100 µM | > 100 µM | > 100 µM | > 100 | > 100 µM | > 100 µM | – | > 100 µM | – | – | – | – | – | – | – | – | – | –
12 | Cc1cc(O)c2c(c1)C(=O)c1cc(O)cc(O)c1C2=O | > 100 µM | > 63.6 µM | 98.8 µM | > 80.2 µM | > 100 µM | > 100 | 85.3 µM | 60.9 µM | > 100 | > 83.1 µM | – | – | – | – | – | 54.2 | – | 46.2 | – | –
13 | O=C([O-])c1ccc2c(c1)-c1nc-2nc2[n-]c(nc3nc(nc4[n-]c(n1)c1ccc(C(=O)[O-])cc41)-c1cc(C(=O)[O-])ccc1-3)c1ccc(C(=O)[O-])cc21.[Fe+2] | > 50 µM | > 50 µM | > 50 µM | > 32.1 µM | > 31.5 µM | > 32.6 | > 50 µM | > 50 µM | – | > 50 µM | > 50 µM | 49.2 µM | > 21.7 µM | > 50 µM | > 50 µM | > 29.5 | > 22.3 | – | > 23.2 | > 41.6
